Data on five molecules can be found in patent EP0110570A2, “Triazole antifungal agents” (Pfizer Limited, priority 1982, dated 1984).

The assay has as its system Candida albicans. The assay can be described thus: In vivo protection of mice inoculated with Candida albicans (PD50). Conditions: read-out: PD50. As to the method: The in vivo evaluation of the compounds can be carried out at a series of dose levels by intraperitoneal or intravenous injection or by oral administration, to mice which are inoculated with a strain of Candida albicans. Activity is based on the survival of a treated group of mice after the death of an untreated group of mice following 48 hours observation. The dose level at which the compound provides 50% protection against the lethal effect of the infection (PD50) is noted.
Using the test method described previously in the text, the following PD50 values (mg./kg.) were obtained in mice infected with Candida albicans:-

Setting [1] is: mice infected with Candida albicans, dose level giving 50% protection against the lethal effect of the infection, survival after 48 hours observation, route not specified (intraperitoneal, intravenous or oral).

Like-named read-outs stand apart in the source and are kept apart here.

As for `Fc1ccc(C(Cl)(Cn2cncn2)C(F)(F)C(F)(F)C(F)(F)F)c(F)c1` (centres unmarked) [Example 5], where the note is “Candida albicans, 48 h”, the ED50 is < 1 mg/kg.
Consider `Fc1ccc(C(Cl)(Cn2cncn2)C(F)(F)F)cc1` (centres unmarked) [Example 3], for which the ED50 under setting [1] stood at 0.6 mg/kg.
On the same count and under the same terms, then `FC(F)(F)C(Cl)(Cn1cncn1)c1ccc(Cl)cc1` (centres unmarked) [Example 2], with 0.6 mg/kg.
Same read-out and setting: to `Fc1ccc(C(Cl)(Cn2cncn2)C(F)(F)F)c(F)c1` (centres unmarked) [Example 1, 1-[2-chloro-2-(2,4-difluorophenyl)-3,3,3-trifluoropropyl]-1H-1,2,4-triazole] belongs 0.15 mg/kg.
Same read-out and setting: to `Fc1ccc(C(Cl)(Cn2cncn2)C(F)(F)C(F)(F)F)cc1` (centres unmarked) [Example 4] belongs < 1 mg/kg.
